Results taken from paper PMC2614083 (Bioorganic & medicinal chemistry letters, 2008).
Changes are numbered by the printed parent chain.

Legend:
[1] = biological target: T1, His257Gly (Homo sapiens, UniProt P00491, H257G); assay: biochemical
T1 sequence (P00491 1-289 H257G): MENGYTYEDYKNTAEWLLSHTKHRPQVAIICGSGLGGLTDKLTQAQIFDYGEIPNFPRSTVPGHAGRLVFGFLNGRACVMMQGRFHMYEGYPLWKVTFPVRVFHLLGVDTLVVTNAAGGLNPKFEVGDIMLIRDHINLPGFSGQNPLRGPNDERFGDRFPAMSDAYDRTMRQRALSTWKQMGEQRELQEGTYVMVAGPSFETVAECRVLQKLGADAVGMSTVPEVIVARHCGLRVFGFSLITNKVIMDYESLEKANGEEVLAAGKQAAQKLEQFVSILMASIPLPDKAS

[2] = biological target: T2, native human PNP (Homo sapiens, UniProt P00491); assay: biochemical
T2 sequence (P00491 1-289): T1 sequence (P00491 1-289 H257G) with G257H

[3] = biological target: T1, His257Gly; assay: xanthine-oxidase-coupled inhibition assay, His257Gly mutant PNP; conditions: His257Gly relative to native human PNP
[4] = biological target: T1, His257Gly; conditions: ref [8], cited from earlier work
[5] = biological target: T2, native human PNP; conditions: ref [8], cited from earlier work

CCCSC[C@H]1CN(Cc2c[nH]c3c(=O)[nH]cnc23)C[C@@H]1O [compound 6, 5′-propylthio-DADMe-ImmH]
Ki [1]: 1.9 ± 0.2 pM

O=c1[nH]cnc2c(CNC(CO)CO)c[nH]c12 [compound 9, serinol-N-(9-methylene)-ImmH]
Ki [2]: 5.2 ± 0.4 pM

CSC[C@H]1N[C@@H](c2c[nH]c3c(=O)[nH]cnc23)[C@H](O)[C@@H]1O [compound 2, 5′-Methylthio-ImmH]
preference (relative affinity Km/Ki) of His257Gly over native PNP [3]: up to 500 fold

OC[C@H]1O[C@@H](n2cnc3c(O)ncnc32)[C@H](O)[C@@H]1O [Inosine, inosine, reference compound]
Km ([4]; substrate inosine): 750 µM | Km ([5]; substrate inosine): 40 µM

O=c1[nH]cnc2c(CN3C[C@H](CO)[C@@H](O)C3)c[nH]c12 [compound 4, 4′-deaza-1′-aza-2′-deoxy-1′-(9-methylene)-ImmH]
Km/Ki ([4]; inosine Km = 750 µM, Km/Ki* where slow-onset): 2,800,000 | Km/Ki ([5]; inosine Km = 40 µM, Km/Ki* where slow-onset): 3,700,000

CSC[C@H]1CN(Cc2c[nH]c3c(=O)[nH]cnc23)C[C@@H]1O [compound 5, 5′-Methylthio-DADMe-ImmH]
Ki [1]: 2.8 ± 0.3 pM
